Assay results as given in US20120015907A1, “Furopyridine compounds and uses thereof” (NOVARTIS AG, priority 2010, published 2012).

target: T1, HCV polymerase (Hepatitis C virus genotype 1b, UniProt Q9WMX2); experiment: biochemical; details: NS5B polymerase IC50 μM, polymerase assay of Biological Example 1
T1 construct: (His)6 (C)
Excerpt: A number of assays have been published to assess these activities. A general method that assesses the gross increase of HCV virus in culture was disclosed in U.S. Pat. No. 5,738,985 to Miles et al. In vitro assays have been reported in Ferrari et al. Jnl. of Vir., 73:1649-1654, 1999; Ishii et al., Hepatology, 29:1227-1235, 1999; Lohmann et al., Jnl of Bio. Chem., 274:10807-10815, 1999; and Yamashita et al., Jnl. of Bio. Chem., 273:15479-15486, 1998.
WO 97/12033, filed on Sep. 27, 1996, by Emory University, listing C. Hagedorn and A. Reinoldus as inventors, which claims priority to U.S. Provisional Patent Application Ser. No. 60/004,383, filed on September 1995, described an HCV polymerase assay that can be used to evaluate the activity of the of the compounds described herein. Another HCV polymerase assay has been reported by Bartholomeusz, et al., Hepatitis C Virus (HCV) RNA polymerase assay using cloned HCV non-structural proteins; Antiviral Therapy 1996:1(Supp 4) 18-24.

**Q.** Which IC50 does the source give for `CNC(=O)c1c(-c2ccc(C)cc2)oc2nc(N(CCCP(C)(=O)O)S(C)(=O)=O)c(C3CC3)cc12` [Example 23.99998, 3-(N-(5-cyclopropyl-3-(methylcarbamoyl)-2-p-tolylfuro[2,3-b]pyridin-6-yl)methylsulfonamido)propyl (methyl)phosphinic acid] here?
**A.** The IC50 was 0.005 µM.

same assay, conditions: polymerase assay of Biological Example 1; read-out: NS5B polymerase IC50

**Q.** Which IC50 does the source give for `CNC(=O)c1c(-c2ccc(F)cc2)oc2nc3c(cc12)C(C)(O)CCCN3S(C)(=O)=O` (stereo not shown) [Example 32, 2-(4-Fluoro-phenyl)-5-hydroxy-9-methanesulfonyl-5-methyl-6,7,8,9-tetrahydro-5H-1-oxa-9,10-diaza-cyclohepta[f]indene-3-carboxylic acid methylamide] here?
**A.** The IC50 was 0.651 µM.

**Q.** For `CCc1cc2c(C(=O)NC)c(-c3ccc(F)cc3)oc2nc1N(CCCOc1ccccc1OC)S(C)(=O)=O` [Example 21.92, 5-ethyl-2-(4-fluorophenyl)-6-(N-(3-(2-methoxyphenoxy)propyl)methylsulfonamido)-N-methylfuro[2,3-b]pyridine-3-carboxamide], which IC50 is on record?
**A.** Its IC50 is 0.352 µM.

**Q.** How did the IC50 turn out when `CCc1cc2c(C(=O)NC)c(-c3ccc(F)cc3)oc2nc1N(CCCCC(=O)N(C)C)S(C)(=O)=O` [Example 22.992, 6-(N-(5-(dimethylamino)-5-oxopentyl)methylsulfonamido)-5-ethyl-2-(4-fluorophenyl)-N-methylfuro[2,3-b]pyridine-3-carboxamide] was run?
**A.** Its IC50 is 0.041 µM.

**Q.** `CNC(=O)c1c(-c2ccc(C)cc2)oc2nc(N(CCCC3(C(=O)O)CC3)S(C)(=O)=O)c(C3CC3)cc12` [Example 29.8, 1-(3-(N-(5-cyclopropyl-3-(methylcarbamoyl)-2-p-tolylfuro[2,3-b]pyridin-6-yl)mcthylsulfonamido)propyl) cyclopropanecarboxylic acid] was tested. Which IC50 did it give?
**A.** Its IC50 is 0.002 µM.

**Q.** How did the IC50 turn out when `C=CCCN(c1nc2oc(-c3ccc(F)cc3)c(C(=O)NC)c2cc1I)S(C)(=O)=O` [Example 18.3, 6-(N-(but-3-enyl)methylsulfonamido)-2-(4-fluorophenyl)-5-iodo-N-methylfuro[2,3-b]pyridine-3-carboxamide] was run?
**A.** The IC50 was 0.103 µM.

**Q.** How did the IC50 turn out when `CNC(=O)c1c(-c2ccc(C)cc2)oc2nc(N(CCCC3(C(=O)O)CCOCC3)S(C)(=O)=O)c(C3CC3)cc12` [Example 28.4, 4-(3-(N-(5-cyclopropyl-3-(methylcarbamoyl)-2-p-tolylfuro[2,3-b]pyridin-6-yl)methylsulfonamido)propyl)tetrahydro-2H-pyran-4-carboxylic acid] was run?
**A.** The IC50 was 0.003 µM.

**Q.** For `CCc1ccc(-c2oc3nc(N(CCCC4(C(=O)O)CC4)S(C)(=O)=O)c(C4CC4)cc3c2C(=O)NC)cc1` [Example 29.9993, 1-(3-(N-(5-cyclopropyl-2-(4-ethylphenyl)-3-(methylcarbamoyl)furo[2,3-b]pyridin-6-yl)methylsulfonamido)propyl) cyclopropanecarboxylic acid], which IC50 is on record?
**A.** Its IC50 is 0.002 µM.

**Q.** With `C=C(c1cc2c(C(=O)NC)c(-c3ccc(F)cc3)oc2nc1N(C)S(C)(=O)=O)C(F)(F)F` [Example 2.5, 2-(4-fluorophenyl)-N-methyl-6-(N-methylmethylsulfonamido)-5-(3,3,3-trifluoroprop-1-en-2-yl)furo[2,3-b]pyridine-3-carboxamide] as the compound, how does the IC50 read?
**A.** The IC50 was 0.662 µM.

**Q.** With `CNC(=O)c1c(-c2ccc(C)cc2)oc2nc(N(CCCO)S(C)(=O)=O)c(C3CC3)cc12` [Example 23.99997, 5-cyclopropyl-6-(N-(3-hydroxypropyl)methylsulfonamido)-N-methyl-2-p-tolylfuro[2,3-b]pyridine-3-carboxamide] as the compound, how does the IC50 read?
**A.** Its IC50 is 0.004 µM.

**Q.** `CCc1cc2c(C(=O)NC)c(-c3ccc(F)cc3)oc2nc1N(CCCC(C)(C)C(=O)OCC(C)C)S(C)(=O)=O` [Example 21.3, isobutyl 5-(N-(5-ethyl-2-(4-fluorophenyl)-3-(methylcarbamoyl)furo[2,3-b]pyridin-6-yl)methylsulfonamido)-2,2-dimethylpentanoate] was tested. Which IC50 did it give?
**A.** The IC50 was 0.134 µM.

**Q.** `CNC(=O)c1c(-c2ccc(C)cc2)oc2nc(N(CCC[C@H](COC)C(=O)N3C(=O)OC[C@@H]3Cc3ccccc3)S(C)(=O)=O)c(C3CC3)cc12` [Example 47.72] was tested. Which IC50 did it give?
**A.** Its IC50 is 0.006 µM.

**Q.** `CCc1ccc(-c2oc3nc(N(CCCC4(C(=O)O)CCC4)S(C)(=O)=O)c(C4CC4)cc3c2C(=O)NC)cc1` [Example 29.91, 1-(3-(N-(5-cyclopropyl-2-(4-ethylphenyl)-3-(methylcarbamoyl)furo[2,3-b]pyridin-6-yl)methylsulfonamido)propyl) cyclobutanecarboxylic acid] was tested. Which IC50 did it give?
**A.** The IC50 was 0.002 µM.

**Q.** For `CNC(=O)c1c(-c2ccc(F)cc2)oc2nc(N(C)S(C)(=O)=O)c(C(C)C)cc12` [Example 6.2, 2-(4-fluorophenyl)-5-isopropyl-N-methyl-6-(N-methylmethylsulfonamido)furo[2,3-b]pyridine-3-carboxamide], which IC50 is on record?
**A.** The IC50 was 0.058 µM.

**Q.** How did the IC50 turn out when `CCc1cc2c(C(=O)NC)c(-c3ccc(F)cc3)oc2nc1N(CCCN1CCCC1=O)S(C)(=O)=O` [Example 22.996, 5-ethyl-2-(4-fluorophenyl)-N-methyl-6-(N-(3-(2-oxopyrrolidin-1-yl)propyl)methylsulfonamido)furo[2,3-b]pyridine-3-carboxamide] was run?
**A.** The IC50 was 0.059 µM.

**Q.** How did the IC50 turn out when `CNC(=O)c1c(-c2ccc(F)cc2)oc2nc(N(CCCC(C)(C)C(=O)O)S(C)(=O)=O)c(C3CC3)cc12` [Example 27.1, 5-(N-(5-cyclopropyl-2-(4-fluorophenyl)-3-(methylcarbamoyl)furo[2,3-6]pyridin-6-yl)methylsulfonamido)-2,2-dimethylpentanoic acid] was run?
**A.** The IC50 was 0.012 µM.

**Q.** How did the IC50 turn out when `CNC(=O)c1c(-c2ccc(F)cc2)oc2nc(N(C)S(C)(=O)=O)c(CC3CO3)cc12` (stereo not shown) [Example 12, 2-(4-fluorophenyl)-N-methyl-6-(N-methylmethylsulfonamido)-5-(oxiran-2-ylmethyl)furo[2,3-b]pyridine-3-carboxamide] was run?
**A.** Its IC50 is 0.734 µM.

**Q.** How did the IC50 turn out when `CNC(=O)c1c(-c2ccc(F)cc2)oc2nc(N(C)S(C)(=O)=O)c(C(C)O)cc12` (stereo not shown) [Example 11, 2-(4-fluorophenyl)-5-(1-hydroxyethyl)-N-methyl-6-(N-methylmethylsulfonamido)furo[2,3-b]pyridine-3-carboxamide] was run?
**A.** The IC50 was 0.825 µM.

**Q.** Which IC50 does the source give for `CNC(=O)c1c(-c2ccc(F)cc2)oc2nc(N(CCN3CCOCC3)S(C)(=O)=O)c(I)cc12` [Example 18.4, 2-(4-fluorophenyl)-5-iodo-N-methyl-6-(N-(2-morpholinoethyl)methylsulfonamido)furo[2,3-b]pyridine-3-carboxamide] here?
**A.** The IC50 was 0.26 µM.

**Q.** Which IC50 does the source give for `CNC(=O)c1c(-c2ccc(C)cc2)oc2nc(N(CCCCCN)S(C)(=O)=O)c(C3CC3)cc12` [Example 23.999994, 6-(N-(5-aminopentyl)methylsulfonamido)-5-cyclopropyl-N-methyl-2-p-tolylfuro[2,3-b]pyridine-3-carboxamide] here?
**A.** Its IC50 is 0.014 µM.

**Q.** With `CCc1cc2c(C(=O)NC)c(-c3ccc(F)cc3)oc2nc1N(CCc1cccc(OC)c1)S(C)(=O)=O` [Example 21.9, 5-ethyl-2-(4-fluorophenyl)-6-(N-(3-methoxyphenethyl)methylsulfonamido)-N-methylfuro[2,3-b]pyridine-3-carboxamide] as the compound, how does the IC50 read?
**A.** The IC50 was 0.772 µM.

**Q.** Which IC50 does the source give for `CNC(=O)c1c(-c2ccc(C)cc2)oc2nc(N(CCCC3(C(=O)O)CCNCC3)S(C)(=O)=O)c(C3CC3)cc12` [Example 29.99991, 4-(3-(N-(5-cyclopropyl-3-(methylcarbamoyl)-2-p-tolylfuro[2,3-b]pyridin-6-yl)methylsulfonamido)propyl) piperidine-4-carboxylic acid] here?
**A.** Its IC50 is 0.129 µM.

**Q.** `CNC(=O)c1c(-c2ccc(C)cc2)oc2nc(N(CCC[C@H](C)C(=O)NCCCC(=O)O)S(C)(=O)=O)c(C3CC3)cc12` [Example 29.999991, (S)-4-(5-(N-(5-cyclopropyl-3-(methylcarbamoyl)-2-p-tolylfuro[2,3-b]pyridin-6-yl)methylsulfonamido)-2-methylpentanamido)butanoic acid] was tested. Which IC50 did it give?
**A.** Its IC50 is 0.02 µM.

**Q.** Which IC50 does the source give for `CCc1cc2c(C(=O)NC)c(-c3ccc(F)cc3)oc2nc1N(CCOc1ccc2cccnc2c1)S(C)(=O)=O` [Example 22.8, 5-ethyl-2-(4-fluorophenyl)-N-methyl-6-(N-(2-(quinolin-7-yloxy)ethyl)methylsulfonamido)furo[2,3-b]pyridine-3-carboxamide] here?
**A.** The IC50 was 0.045 µM.

**Q.** Which IC50 does the source give for `CNC(=O)c1c(-c2ccc(F)cc2)oc2nc3c(cc12)C(C)CCCCCN3S(C)(=O)=O` (stereo not shown) [Example 37, 2-(4-Fluoro-phenyl)-11-methanesulfonyl-5-methyl-6,7,8,9,10,11-hexahydro-5H-1-oxa-11,12-diaza-cyclonona[f]indene-3-carboxylic acid methylamide] here?
**A.** Its IC50 is 0.048 µM.

**Q.** `CNC(=O)c1c(-c2ccc(C)cc2)oc2nc(N(CCCN3CCCC3=O)S(C)(=O)=O)c(C3CC3)cc12` [Example 23.999997, 5-cyclopropyl-N-methyl-6-(N-(3-(2-oxopyrrolidin-1-yl)propyl)methylsulfonamido)-2-p-tolylfuro[2,3-b] pyridine-3-carboxamide] was tested. Which IC50 did it give?
**A.** The IC50 was 0.005 µM.

**Q.** With `CNC(=O)c1c(-c2ccc(C)c(F)c2)oc2nc(N(CCCCC(=O)O)S(C)(=O)=O)c(C3CC3)cc12` [Example 29.999999, 5-(N-(5-cyclopropyl-2-(3-fluoro-4-methylphenyl)-3-(methylcarbamoyl)furo[2,3-b]pyridin-6-yl)methylsulfonamido) pentanoic acid] as the compound, how does the IC50 read?
**A.** The IC50 was 0.002 µM.

**Q.** With `CCc1cc2c(C(=O)NC)c(-c3ccc(F)cc3)oc2nc1N(CCCN(C)C(C)=O)S(C)(=O)=O` [Example 23.997, 5-ethyl-2-(4-fluorophenyl)-N-methyl-6-(N-(3-(N-methylacetamido)propyl)methylsulfonamido)furo[2,3-b]pyridine-3-carboxamide] as the compound, how does the IC50 read?
**A.** The IC50 was 0.058 µM.
